{"source": "patent US11505527B1", "about": "“Tetrahydroquinoline derivatives and a process of preparation thereof” (King Abdulaziz University, priority 2022, dated 2022)", "key": {"PDGFR-β": {"molecular_target": "PDGFR-β (Homo sapiens (Human), UniProt P09619)", "sequence (P09619 33-1106, species assumed)": "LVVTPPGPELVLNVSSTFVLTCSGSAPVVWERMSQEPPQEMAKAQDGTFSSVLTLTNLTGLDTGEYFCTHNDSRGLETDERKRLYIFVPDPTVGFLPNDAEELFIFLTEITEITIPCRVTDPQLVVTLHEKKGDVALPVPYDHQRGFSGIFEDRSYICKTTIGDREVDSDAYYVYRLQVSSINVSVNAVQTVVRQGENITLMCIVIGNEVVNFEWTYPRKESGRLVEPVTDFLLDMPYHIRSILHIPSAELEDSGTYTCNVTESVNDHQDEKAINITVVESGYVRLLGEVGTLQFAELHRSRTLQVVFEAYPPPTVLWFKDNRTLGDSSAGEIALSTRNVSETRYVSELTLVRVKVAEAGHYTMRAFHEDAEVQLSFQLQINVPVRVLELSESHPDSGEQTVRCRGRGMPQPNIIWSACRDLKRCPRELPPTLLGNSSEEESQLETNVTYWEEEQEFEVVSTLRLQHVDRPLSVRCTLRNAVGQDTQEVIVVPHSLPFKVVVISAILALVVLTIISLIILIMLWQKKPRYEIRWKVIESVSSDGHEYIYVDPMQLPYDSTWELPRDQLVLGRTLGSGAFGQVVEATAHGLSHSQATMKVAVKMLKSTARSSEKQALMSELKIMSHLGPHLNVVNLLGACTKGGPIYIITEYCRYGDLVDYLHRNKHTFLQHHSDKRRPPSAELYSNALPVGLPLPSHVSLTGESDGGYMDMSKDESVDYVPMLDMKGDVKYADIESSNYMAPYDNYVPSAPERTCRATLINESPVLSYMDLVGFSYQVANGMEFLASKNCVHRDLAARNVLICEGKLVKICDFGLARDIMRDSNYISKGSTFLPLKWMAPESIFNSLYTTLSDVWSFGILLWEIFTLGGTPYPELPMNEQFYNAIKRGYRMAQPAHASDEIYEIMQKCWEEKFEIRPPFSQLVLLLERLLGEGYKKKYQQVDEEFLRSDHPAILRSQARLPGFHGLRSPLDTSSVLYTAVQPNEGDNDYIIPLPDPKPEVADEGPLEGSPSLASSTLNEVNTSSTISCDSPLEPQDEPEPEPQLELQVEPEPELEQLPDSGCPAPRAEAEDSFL", "assay": "In vitro kinase inhibition assay, PDGFR-β", "format": "biochemical", "description": "(§1) RTK's play essential roles in regulation of cell proliferation, differentiation, survival and apoptosis. Aberrant expression of RTK results in cell growth dysfunction leading to tumor takeover, angiogenesis, and metastasis. They also produce their actions in a synergistic pattern in regulating tumor response to different anticancer RTK inhibitor drug therapies. […] The procedure of the used kits was done according to the manufacturer's instructions."}, "EGFR": {"molecular_target": "EGFR (Homo sapiens (Human), UniProt P00533)", "sequence (P00533 25-1210)": "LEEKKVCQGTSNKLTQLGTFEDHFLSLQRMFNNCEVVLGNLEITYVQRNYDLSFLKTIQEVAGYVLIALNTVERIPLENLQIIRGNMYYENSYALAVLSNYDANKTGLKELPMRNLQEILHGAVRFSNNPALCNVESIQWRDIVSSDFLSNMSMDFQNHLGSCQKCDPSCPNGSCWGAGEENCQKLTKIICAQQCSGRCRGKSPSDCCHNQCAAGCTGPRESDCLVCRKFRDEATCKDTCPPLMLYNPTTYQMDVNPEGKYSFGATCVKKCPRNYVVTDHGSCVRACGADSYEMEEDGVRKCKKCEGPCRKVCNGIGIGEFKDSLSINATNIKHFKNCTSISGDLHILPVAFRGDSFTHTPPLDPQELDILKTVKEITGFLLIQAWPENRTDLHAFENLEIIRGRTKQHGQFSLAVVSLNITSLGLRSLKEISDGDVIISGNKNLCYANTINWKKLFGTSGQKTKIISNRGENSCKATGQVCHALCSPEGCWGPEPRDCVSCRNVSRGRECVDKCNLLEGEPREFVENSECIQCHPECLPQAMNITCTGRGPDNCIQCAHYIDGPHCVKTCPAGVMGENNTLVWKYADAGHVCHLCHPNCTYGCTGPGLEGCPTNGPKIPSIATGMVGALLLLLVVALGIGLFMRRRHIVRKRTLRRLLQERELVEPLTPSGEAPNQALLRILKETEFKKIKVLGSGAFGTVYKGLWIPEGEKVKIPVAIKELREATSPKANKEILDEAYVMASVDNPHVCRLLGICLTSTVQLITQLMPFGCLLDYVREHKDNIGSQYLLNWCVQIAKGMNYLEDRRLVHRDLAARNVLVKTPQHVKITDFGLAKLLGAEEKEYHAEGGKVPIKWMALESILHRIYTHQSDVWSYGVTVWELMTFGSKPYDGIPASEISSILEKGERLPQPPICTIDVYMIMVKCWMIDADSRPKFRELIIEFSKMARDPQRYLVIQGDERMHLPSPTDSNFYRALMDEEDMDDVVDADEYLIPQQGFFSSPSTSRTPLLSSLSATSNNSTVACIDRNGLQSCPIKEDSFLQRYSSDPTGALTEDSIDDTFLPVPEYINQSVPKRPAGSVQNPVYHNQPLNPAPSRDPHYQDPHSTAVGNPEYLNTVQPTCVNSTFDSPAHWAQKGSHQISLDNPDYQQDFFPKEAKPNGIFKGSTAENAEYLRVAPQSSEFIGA", "assay": "In vitro kinase inhibition assay, EGFR (Abcam Human In cell ELISA Kit)", "format": "biochemical", "description": "as §1"}, "HER-2": {"molecular_target": "HER-2 (Homo sapiens (Human), UniProt P04626)", "sequence (P04626 23-1255)": "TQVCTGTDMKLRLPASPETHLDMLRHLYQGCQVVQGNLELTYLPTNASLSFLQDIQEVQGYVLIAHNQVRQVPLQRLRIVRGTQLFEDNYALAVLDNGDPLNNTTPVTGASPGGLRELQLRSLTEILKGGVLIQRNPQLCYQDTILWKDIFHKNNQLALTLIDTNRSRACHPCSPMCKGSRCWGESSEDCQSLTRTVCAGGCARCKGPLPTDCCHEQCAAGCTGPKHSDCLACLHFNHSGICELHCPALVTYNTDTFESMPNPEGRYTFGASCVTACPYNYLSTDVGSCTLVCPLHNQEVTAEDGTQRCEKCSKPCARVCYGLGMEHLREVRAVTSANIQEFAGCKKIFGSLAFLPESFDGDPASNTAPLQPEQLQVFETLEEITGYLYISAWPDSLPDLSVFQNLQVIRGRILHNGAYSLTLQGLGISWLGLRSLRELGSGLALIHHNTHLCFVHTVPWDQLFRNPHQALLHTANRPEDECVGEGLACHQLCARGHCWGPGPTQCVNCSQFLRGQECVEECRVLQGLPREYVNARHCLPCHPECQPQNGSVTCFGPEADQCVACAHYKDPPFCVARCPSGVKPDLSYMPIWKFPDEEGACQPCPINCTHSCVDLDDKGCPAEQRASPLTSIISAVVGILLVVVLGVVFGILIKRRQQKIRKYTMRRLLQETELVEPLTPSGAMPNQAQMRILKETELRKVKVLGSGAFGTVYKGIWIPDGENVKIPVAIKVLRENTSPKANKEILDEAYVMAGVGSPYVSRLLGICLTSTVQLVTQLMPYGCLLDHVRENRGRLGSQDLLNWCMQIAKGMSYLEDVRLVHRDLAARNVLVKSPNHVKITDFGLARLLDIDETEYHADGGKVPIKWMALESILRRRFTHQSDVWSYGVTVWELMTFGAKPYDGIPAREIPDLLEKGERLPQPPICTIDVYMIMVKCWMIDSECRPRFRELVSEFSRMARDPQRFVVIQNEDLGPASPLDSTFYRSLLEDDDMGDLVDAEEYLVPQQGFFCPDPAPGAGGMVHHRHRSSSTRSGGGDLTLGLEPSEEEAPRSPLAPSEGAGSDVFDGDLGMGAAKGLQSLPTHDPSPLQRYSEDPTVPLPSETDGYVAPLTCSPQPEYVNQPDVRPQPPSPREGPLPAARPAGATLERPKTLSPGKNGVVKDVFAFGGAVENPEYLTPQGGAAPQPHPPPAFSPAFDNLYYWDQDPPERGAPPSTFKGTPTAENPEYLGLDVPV", "assay": "In vitro kinase inhibition assay, HER2 (ADP-Glo Kinase Assay)", "format": "biochemical", "description": "as §1"}, "normal WI38 cells": {"system": "normal WI38 cells", "assay": "MTT assay against normal WI38 cells (safety profile)", "format": "cell-based", "settings": "for IC50 against WI38 cells, fold higher than IC50 against MCF-7 cancer cells: WI38 vs MCF-7; for IC50 against WI38 cells relative to IC50 of staurosporine: vs reference drug staurosporine", "method": "(§2) For this purpose, cells suspended in the medium (2×10^4 cells/mL) were plated in 96-well culture plates and incubated at 37° C. in a 5% CO2 incubator. After 12 h, the test sample ([…]) was added to the cells (2×10^4) in 96-well plates and cultured at 37° C. for 3 days. The cultured cells were mixed with 20 μL (microlitre) of MTT solution and incubated for 4 h at 37° C. The supernatant was carefully removed from each well and […] of DMSO were added to each well to dissolve the formazan crystals which were formed by the cellular reduction of MTT. After mixing with a mechanical plate mixer, the absorbance of each well was measured by a microplate reader using a test wavelength of 570 nm (nanometers). […] Each experiment was performed at least 3 times.\nOne of the features that differentiates various antiproliferative therapeutic agents from each other is the recurrence and severity of their side effects to the normal cells at their therapeutic doses. Accordingly, the safety profile of the most promising candidates (4b, 4j, 4k, and 4e) was evaluated against the normal WI38 cells derived from lung tissues using MTT assay."}, "VEGFR-2": {"molecular_target": "VEGFR-2 (Homo sapiens (Human), UniProt P35968)", "sequence (P35968 20-1356)": "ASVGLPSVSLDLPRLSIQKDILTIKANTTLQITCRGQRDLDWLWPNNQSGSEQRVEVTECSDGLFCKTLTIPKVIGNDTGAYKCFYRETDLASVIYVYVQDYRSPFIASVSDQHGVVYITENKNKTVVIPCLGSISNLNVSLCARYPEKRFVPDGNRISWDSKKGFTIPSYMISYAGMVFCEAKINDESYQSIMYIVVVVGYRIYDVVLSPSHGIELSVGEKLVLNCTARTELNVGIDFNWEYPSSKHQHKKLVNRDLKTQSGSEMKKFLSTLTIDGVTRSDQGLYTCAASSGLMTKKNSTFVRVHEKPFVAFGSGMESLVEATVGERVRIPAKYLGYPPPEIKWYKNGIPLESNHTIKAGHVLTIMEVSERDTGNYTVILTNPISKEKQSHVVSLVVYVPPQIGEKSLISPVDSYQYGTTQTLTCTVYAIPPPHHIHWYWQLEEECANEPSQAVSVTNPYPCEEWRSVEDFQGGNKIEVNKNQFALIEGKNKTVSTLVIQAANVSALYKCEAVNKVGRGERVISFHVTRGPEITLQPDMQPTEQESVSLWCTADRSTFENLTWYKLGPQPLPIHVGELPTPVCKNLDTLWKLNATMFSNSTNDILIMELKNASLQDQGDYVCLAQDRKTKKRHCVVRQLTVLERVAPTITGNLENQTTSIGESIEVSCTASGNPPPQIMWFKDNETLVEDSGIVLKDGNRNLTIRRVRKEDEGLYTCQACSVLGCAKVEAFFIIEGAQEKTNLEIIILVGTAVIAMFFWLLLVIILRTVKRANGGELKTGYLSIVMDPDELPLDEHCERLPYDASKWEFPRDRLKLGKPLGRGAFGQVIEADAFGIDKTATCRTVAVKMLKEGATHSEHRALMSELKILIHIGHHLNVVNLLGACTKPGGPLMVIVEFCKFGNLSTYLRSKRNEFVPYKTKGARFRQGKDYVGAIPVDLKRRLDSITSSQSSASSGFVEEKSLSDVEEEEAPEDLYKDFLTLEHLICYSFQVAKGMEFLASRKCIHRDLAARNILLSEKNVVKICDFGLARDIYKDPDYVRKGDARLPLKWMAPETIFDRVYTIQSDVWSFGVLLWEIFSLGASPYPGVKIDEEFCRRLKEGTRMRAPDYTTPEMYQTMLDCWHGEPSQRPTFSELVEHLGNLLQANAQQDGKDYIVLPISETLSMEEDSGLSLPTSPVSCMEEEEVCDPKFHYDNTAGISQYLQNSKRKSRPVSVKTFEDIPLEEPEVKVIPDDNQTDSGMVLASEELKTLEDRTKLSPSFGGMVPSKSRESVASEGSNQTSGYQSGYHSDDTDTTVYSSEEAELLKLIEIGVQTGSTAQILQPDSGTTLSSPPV", "assay": "In vitro kinase inhibition assay, VEGFR2 (KDR) Kinase Assay Kit", "format": "biochemical", "settings": "for VEGFR-2 inhibitory effect, fold less than Sorafenib: vs Sorafenib", "description": "as §1"}, "[1]": {"system": "human breast cancer MCF-7 cell line", "assay": "MTT cell viability assay against MCF-7 cells", "format": "cell-based", "settings": "vs standard drug staurosporine", "method": "as §2"}, "MCF-7 cancer cells": {"system": "MCF-7 cancer cells", "assay": "Annexin-V/PI apoptosis assay, flow cytometry", "format": "cell-based, human", "settings": "MCF-7, compound at IC50 concentration, 24 h; control 0.66%", "description": "Flow cytometry method has been used to detect the corresponding red (PI) and green (FITC) fluorescence.\nThe induction of apoptosis is one of the most crucial tools that confirm the effectiveness of cancer therapy. Cell cycle checkpoints are G1 (restriction or start), S ([…]), and G2/M. One of the main functions of the anticancer therapeutics is stoppage of the cell division at these checkpoints. […] The cells were stained with Annexin V/PI and examined using flow cytometry procedure. For cell cycle analysis, cell pellets were fixed with 70% ethanol on ice for 15 min. and collected again. The collected pellets were incubated with propidium iodide (PI) staining solution ([…] PI, 0.1 mg/mL RNaseA, 0.05% Triton X-100) at room temperature for 1 hand analyzed by Gallios flow cytometer (Beckman Coulter, Brea, CA, USA). Apoptosis detection was performed by FITC Annexin V/PI commercial kit (Becton Dickenson, Franklin Lakes, N.J., USA) following the manufacture protocol. The samples were analyzed by fluorescence-activated cell sorting (FACS) with a Gallios flow cytometer (Beckman Coulter, Brea, Calif., USA) within 1 h after staining Data were analyzed using Kaluzav 1.2 (Beckman Coulter)."}, "[2]": {"settings": "unit mM, read-out: EGFR IC50 (converted)"}}, "note": "Where two headings read alike, the source gives them in different places."}
{"smiles": "CCOC(=O)C1=C(C(F)(F)F)NC2=C(C(=O)CC(C)(C)C2)C1c1ccc(S(=O)(=O)c2ccccc2)cc1", "note": "(stereo not shown) [Compound 4b, ethyl 7,7-dimethyl-5-oxo-4-(4-(phenylsulfonyl)phenyl)-2-(trifluoromethyl)-1,4,5,6,7,8-hexahydroquinoline-3-carboxylate]", "values": [{"measurement": "IC50", "setting": "PDGFR-β; Table 4", "value": 0.394, "unit": "nM"}, {"measurement": "IC50", "setting": "EGFR; [2]", "value": 110, "unit": "nM"}, {"measurement": "IC50", "setting": "HER-2; Table 4, read-out: HER-2 IC50 (converted)", "value": 0.562, "unit": "nM"}, {"measurement": "IC50 against WI38 cells, fold higher than IC50 against MCF-7 cancer cells", "setting": "normal WI38 cells", "value": 24, "unit": "fold"}, {"measurement": "IC50 against WI38 cells relative to IC50 of staurosporine", "setting": "normal WI38 cells", "value": "about 3 fold"}, {"measurement": "IC50", "setting": "VEGFR-2; Table 4", "value": 1.97, "unit": "nM"}, {"measurement": "VEGFR-2 inhibitory effect, fold less than Sorafenib", "setting": "VEGFR-2", "value": "about 6.2 fold"}, {"measurement": "fold more potent activity than staurosporine (MCF-7)", "setting": "[1]", "value": "about 2.5 fold"}]}
{"smiles": "CC1(C)CC(=O)C2=C(C1)NC(N)=C(C(=O)c1ccccc1)C2c1ccc(S(=O)(=O)c2ccccc2)cc1", "note": "(stereo not shown) [Compound 4d, 2-amino-3-benzoyl-7,7-dimethyl-4-(4-(phenylsulfonyl)phenyl)-4,6,7,8-tetrahydroquinolin-5(1H)-one]", "values": [{"measurement": "fold less potent than the standard drug staurosporine (MCF-7)", "setting": "[1]", "value": 1.4, "unit": "fold"}]}
{"smiles": "Cc1ccc(C(=O)C2=C(N)NC3=C(C(=O)CC(C)(C)C3)C2c2ccc(S(=O)(=O)c3ccccc3)cc2)cc1", "note": "(stereo not shown) [Compound 4e, 2-amino-7,7-dimethyl-3-(4-methylbenzoyl)-4-(4-(phenylsulfonyl)phenyl)-4,6,7,8-tetrahydroquinolin-5(1H)-one]", "values": [{"measurement": "IC50 against WI38 cells, fold higher than IC50 against MCF-7 cancer cells", "setting": "normal WI38 cells", "value": 4, "unit": "fold"}, {"measurement": "IC50 against WI38 cells relative to IC50 of staurosporine", "setting": "normal WI38 cells", "value": "approximately equal"}, {"measurement": "fold more potent activity than staurosporine (MCF-7)", "setting": "[1]", "value": "1-1.6 fold"}]}
{"smiles": "Cc1ccc(S(=O)(=O)c2ccc(C3C(C(=O)c4ccccc4)=C(N)NC4=C3C(=O)CC(C)(C)C4)cc2)cc1", "note": "(stereo not shown) [Compound 4j, 2-amino-3-benzoyl-7,7-dimethyl-4-(4-tosylphenyl)-4,6,7,8-tetrahydroquinolin-5(1H)-one]", "values": [{"measurement": "PDGFR-β inhibition, fold more than reference sorafenib", "setting": "PDGFR-β", "value": 0.7, "unit": "fold"}, {"measurement": "IC50", "setting": "PDGFR-β; Table 4", "value": 0.133, "unit": "nM"}, {"measurement": "IC50", "setting": "PDGFR-β; differs from Table 4", "value": 81.6, "unit": "nM"}, {"measurement": "PDGFR-a inhibition, fold more than reference sorafenib", "setting": "PDGFR-β; text b141 prints PDGFR-a", "value": 1.9, "unit": "fold"}, {"measurement": "necrosis percent", "setting": "MCF-7 cancer cells", "value": 4.2, "unit": "%"}, {"measurement": "IC50", "setting": "EGFR; EGFR IC50, Table 4, heading: EGFR IC50", "value": "70 ± 20", "unit": "nM"}, {"measurement": "IC50", "setting": "EGFR; differs from Table 4, read-out: EGFR IC50 (converted)", "value": 77.4, "unit": "nM"}, {"measurement": "IC50", "setting": "EGFR; [2]", "value": 70, "unit": "nM"}, {"measurement": "IC50", "setting": "HER-2; Table 4, heading: HER-2 IC50, read-out: HER-2 IC50 (converted)", "value": "170 ± 20", "unit": "nM"}, {"measurement": "IC50", "setting": "HER-2; differs from Table 4, read-out: HER-2 IC50 (converted)", "value": 171, "unit": "nM"}, {"measurement": "IC50", "setting": "HER-2; unit mM, read-out: HER-2 IC50 as restated in text", "value": 170, "unit": "nM"}, {"measurement": "IC50 against WI38 cells, fold higher than IC50 against MCF-7 cancer cells", "setting": "normal WI38 cells", "value": 20, "unit": "fold"}, {"measurement": "IC50 against WI38 cells relative to IC50 of staurosporine", "setting": "normal WI38 cells", "value": "about 3 fold"}, {"measurement": "IC50", "setting": "VEGFR-2; Table 4", "value": 0.57, "unit": "nM"}, {"measurement": "IC50", "setting": "VEGFR-2; differs from Table 4", "value": 304, "unit": "nM"}, {"measurement": "VEGFR-2 inhibitory effect, fold less than Sorafenib", "setting": "VEGFR-2", "value": "~1.8", "unit": "fold"}, {"measurement": "fold more potent activity than staurosporine (MCF-7)", "setting": "[1]", "value": "1-1.6 fold"}]}
{"smiles": "Cc1ccc(C(=O)C2=C(N)NC3=C(C(=O)CC(C)(C)C3)C2c2ccc(S(=O)(=O)c3ccc(C)cc3)cc2)cc1", "note": "(stereo not shown) [Compound 4k, 2-amino-7,7-dimethyl-3-(4-methylbenzoyl)-4-(4-tosylphenyl)-4,6,7,8-tetrahydroquinolin-5(1H)-one]", "values": [{"measurement": "IC50 against WI38 cells, fold higher than IC50 against MCF-7 cancer cells", "setting": "normal WI38 cells", "value": 4, "unit": "fold"}, {"measurement": "IC50 against WI38 cells relative to IC50 of staurosporine", "setting": "normal WI38 cells", "value": "approximately equal"}, {"measurement": "fold more potent activity than staurosporine (MCF-7)", "setting": "[1]", "value": "1-1.6 fold"}]}
{"smiles": "Cc1ccc(S(=O)(=O)c2ccc(C3C(C(=O)c4ccc(Br)cc4)=C(N)NC4=C3C(=O)CC(C)(C)C4)cc2)cc1", "note": "(stereo not shown) [Compound 4l, 2-amino-3-(4-bromobenzoyl)-7,7-dimethyl-4-(4-tosylphenyl)-4,6,7,8-tetrahydroquinolin-5(1H)-one]", "values": [{"measurement": "fold less potent than the standard drug staurosporine (MCF-7)", "setting": "[1]", "value": 1.4, "unit": "fold"}]}
{"smiles": "CN[C@@H]1C[C@H]2O[C@@](C)([C@@H]1OC)n1c3ccccc3c3c4c(c5c6ccccc6n2c5c31)C(=O)NC4", "note": "[Staurosporine, reference compound]", "values": [{"measurement": "IC50", "setting": "normal WI38 cells; MTT, normal lung-derived cells", "value": "13 ± 2", "unit": "nM"}]}
